In BindingDB's records for doi:10.1021/jm0704898 (Georgetown University Medical Center, 2007) one finds Ki data, which are given here for 8 compounds.

Assay [1] deals with Prothrombin (Bos taurus, UniProt P00735). Briefly: Enzyme Inhibition Assay. The following applies: pH 8.5; 22 °C. The procedure: (§1) The enzyme reaction was initiated by adding fluorescence peptide substrate to reaction mixture containing enzyme and test compounds. […] Hydrolysis rates were recorded in presence of six to seven different concentrations of inhibitor.
For assay [2], the target named is T1, Suppressor of tumorigenicity 14 protein (Homo sapiens, UniProt Q9Y5Y6).
T1 sequence (Q9Y5Y6 whole entry): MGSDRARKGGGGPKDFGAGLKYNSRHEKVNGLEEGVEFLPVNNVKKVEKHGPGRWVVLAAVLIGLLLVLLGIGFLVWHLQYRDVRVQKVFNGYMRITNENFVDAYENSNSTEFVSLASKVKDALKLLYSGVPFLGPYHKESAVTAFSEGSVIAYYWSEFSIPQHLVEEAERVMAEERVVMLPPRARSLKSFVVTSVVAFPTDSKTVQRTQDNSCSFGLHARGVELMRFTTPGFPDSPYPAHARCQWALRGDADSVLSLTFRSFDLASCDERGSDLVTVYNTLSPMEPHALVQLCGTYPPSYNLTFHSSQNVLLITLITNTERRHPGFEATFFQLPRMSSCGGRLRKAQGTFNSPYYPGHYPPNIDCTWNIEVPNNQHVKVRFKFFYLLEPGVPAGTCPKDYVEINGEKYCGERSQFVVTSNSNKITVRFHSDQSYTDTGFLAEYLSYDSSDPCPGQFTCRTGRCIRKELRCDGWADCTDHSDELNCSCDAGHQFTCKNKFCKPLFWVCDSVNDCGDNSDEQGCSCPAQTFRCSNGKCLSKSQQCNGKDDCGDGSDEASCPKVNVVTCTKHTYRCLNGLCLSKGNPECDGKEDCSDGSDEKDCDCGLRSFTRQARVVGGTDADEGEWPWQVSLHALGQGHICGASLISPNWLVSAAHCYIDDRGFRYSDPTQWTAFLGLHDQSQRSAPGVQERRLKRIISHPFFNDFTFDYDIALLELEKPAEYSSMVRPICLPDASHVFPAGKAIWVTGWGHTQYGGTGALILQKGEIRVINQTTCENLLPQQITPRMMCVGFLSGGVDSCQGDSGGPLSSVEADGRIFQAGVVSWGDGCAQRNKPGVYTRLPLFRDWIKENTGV
The assay can be described thus: Enzyme Inhibition Assay. The note with it: pH 8.5; 22 °C. On the procedure:
as §1

The Ki is a measure of affinity in units of concentration, obtained from inhibition or displacement. Low readings indicate a stronger hold on the target, high ones a looser hold on the target.

Positions of bridges follow the written chain, without caps; N, C: chain ends. Residues, ends and D or L forms follow the SMILES beside them.

Consider `CC[C@H](C)[C@@H]1NC(=O)[C@H](CO)NC(=O)[C@H](CCCCN)NC(=O)[C@H]([C@@H](C)O)NC(=O)[C@@H]2CSSC[C@H](NC(=O)[C@H](CCC(N)=O)NC(=O)[C@@H]3CCCN3C(=O)[C@@H]3CCCN3C1=O)C(=O)N[C@@H](Cc1ccccc1)C(=O)N1CCC[C@H]1C(=O)N[C@@H](CC(=O)O)C(=O)NCC(=O)N[C@@H](CCCN=C(N)N)C(=O)N2` [2-[(1R,4S,7S,13S,19S,22S,25S,28S,31R,34S,40S,43S,49S)-25-(4-aminobutyl)-49-benzyl-19-[(2S)-butan-2-yl]-34-(3-carbamimidamidopropyl)-4-(2-carbamoylethyl)-28-[(1R)-1-hydroxyethyl]-22-(hydroxymethyl)-3,6,12,18,21,24,27,30,33,36,39,42,48,51-tetradecaoxo-53,54-dithia-2,5,11,17,20,23,26,29,32,35,38,41,47,50-tetradecaazapentacyclo[29.20.4.0^{7,11}.0^{13,17}.0^{43,47}]pentapentacontan-40-yl]acetic acid] (cyclo(CFPDGRCTKSIPPQ); disulfide 1-7), for which the Ki was more than 2500 µM in assay [1] and 2330 nM in assay [2].

Regarding `CC[C@H](C)[C@@H]1NC(=O)[C@@H]2CCCN2C(=O)[C@@H]2CCCN2C(=O)[C@H]([C@@H](C)CC)NC(=O)[C@H](CO)NC(=O)[C@H](CCCCN)NC(=O)[C@H]([C@@H](C)O)NC(=O)[C@@H]2CSSC[C@H](NC1=O)C(=O)N[C@@H](Cc1ccccc1)C(=O)N1CCC[C@H]1C(=O)N[C@@H](CC(=O)O)C(=O)NCC(=O)N[C@@H](CCCCN=C(N)N)C(=O)N2` [2-[(1R,4S,7S,13S,19S,22S,25S,28S,31R,34S,40S,43S,49S)-25-(4-aminobutyl)-49-benzyl-4,19-bis[(2S)-butan-2-yl]-34-(4-carbamimidamidobutyl)-28-[(1R)-1-hydroxyethyl]-22-(hydroxymethyl)-3,6,12,18,21,24,27,30,33,36,39,42,48,51-tetradecaoxo-53,54-dithia-2,5,11,17,20,23,26,29,32,35,38,41,47,50-tetradecaazapentacyclo[29.20.4.0^{7,11}.0^{13,17}.0^{43,47}]pentapentacontan-40-yl]acetic acid], the inhibitory constant (Ki) in assay [1] worked out at 7.63 µM; in assay [2], 857 nM.

Take `CC[C@H](C)[C@@H]1NC(=O)[C@@H]2CCCN2C(=O)[C@@H]2CCCN2C(=O)[C@H]([C@@H](C)CC)NC(=O)[C@H](CO)NC(=O)[C@H](CCCCN)NC(=O)[C@H]([C@@H](C)O)NC(=O)[C@@H]2CSSC[C@H](NC1=O)C(=O)N[C@@H](Cc1ccccc1)C(=O)N1CCC[C@H]1C(=O)N[C@@H](CC(=O)O)C(=O)NCC(=O)N[C@@H](Cc1ccc(N=C(N)N)cc1)C(=O)N2` [2-[(1R,4S,7S,13S,19S,22S,25S,28S,31R,34S,40S,43S,49S)-25-(4-aminobutyl)-49-benzyl-4,19-bis[(2S)-butan-2-yl]-34-[(4-carbamimidamidophenyl)methyl]-28-[(1R)-1-hydroxyethyl]-22-(hydroxymethyl)-3,6,12,18,21,24,27,30,33,36,39,42,48,51-tetradecaoxo-53,54-dithia-2,5,11,17,20,23,26,29,32,35,38,41,47,50-tetradecaazapentacyclo[29.20.4.0^{7,11}.0^{13,17}.0^{43,47}]pentapentacontan-40-yl]acetic acid]: the figures for the Ki in assay [1] and in assay [2] were 164 µM and 90000 nM, respectively.

Regarding `CC[C@H](C)[C@@H]1NC(=O)[C@@H]2CCCN2C(=O)[C@@H]2CCCN2C(=O)[C@H]([C@@H](C)CC)NC(=O)[C@H](CO)NC(=O)[C@H](CCCCCN)NC(=O)[C@H]([C@@H](C)O)NC(=O)[C@@H]2CSSC[C@H](NC1=O)C(=O)N[C@@H](Cc1ccccc1)C(=O)N1CCC[C@H]1C(=O)N[C@@H](CC(=O)O)C(=O)NCC(=O)N[C@@H](CCCN=C(N)N)C(=O)N2` [2-[(1R,4S,7S,13S,19S,22S,25S,28S,31R,34S,40S,43S,49S)-25-(5-aminopentyl)-49-benzyl-4,19-bis[(2S)-butan-2-yl]-34-(3-carbamimidamidopropyl)-28-[(1R)-1-hydroxyethyl]-22-(hydroxymethyl)-3,6,12,18,21,24,27,30,33,36,39,42,48,51-tetradecaoxo-53,54-dithia-2,5,11,17,20,23,26,29,32,35,38,41,47,50-tetradecaazapentacyclo[29.20.4.0^{7,11}.0^{13,17}.0^{43,47}]pentapentacontan-40-yl]acetic acid], the results for the Ki in assay [1] and in assay [2] were 45.6 µM and 28000 nM, respectively.

As to `CC[C@H](C)[C@@H]1NC(=O)[C@@H]2CCCN2C(=O)[C@@H]2CCCN2C(=O)[C@H]([C@@H](C)CC)NC(=O)[C@H](CO)NC(=O)[C@H](CCCCN)NC(=O)[C@H]([C@@H](C)O)NC(=O)[C@@H]2CSSC[C@H](NC1=O)C(=O)N[C@@H](Cc1ccc(-c3ccccc3)cc1)C(=O)N1CCC[C@H]1C(=O)N[C@@H](CC(=O)O)C(=O)NCC(=O)N[C@@H](CCCN=C(N)N)C(=O)N2` [2-[(1R,4S,7S,13S,19S,22S,25S,28S,31R,34S,40S,43S,49S)-25-(4-aminobutyl)-4,19-bis[(2S)-butan-2-yl]-34-(3-carbamimidamidopropyl)-28-[(1R)-1-hydroxyethyl]-22-(hydroxymethyl)-3,6,12,18,21,24,27,30,33,36,39,42,48,51-tetradecaoxo-49-[(4-phenylphenyl)methyl]-53,54-dithia-2,5,11,17,20,23,26,29,32,35,38,41,47,50-tetradecaazapentacyclo[29.20.4.0^{7,11}.0^{13,17}.0^{43,47}]pentapentacontan-40-yl]acetic acid], the Ki in assay [1] is 25.6 µM; in assay [2], 1000 nM.

`CC[C@H](C)[C@@H]1NC(=O)[C@@H]2CCCN2C(=O)[C@@H]2CCCN2C(=O)[C@H]([C@@H](C)CC)NC(=O)[C@H](CO)NC(=O)[C@H](CCCCN)NC(=O)[C@H]([C@@H](C)O)NC(=O)[C@@H]2CSSC[C@H](NC1=O)C(=O)N[C@@H](Cc1c(F)c(F)c(F)c(F)c1F)C(=O)N1CCC[C@H]1C(=O)N[C@@H](CC(=O)O)C(=O)NCC(=O)N[C@@H](CCCN=C(N)N)C(=O)N2`: the Ki in assay [1] was found to be 33.6 µM; in assay [2] it was 890 nM.

Turning to `CC[C@H](C)[C@@H]1NC(=O)[C@@H]2CCCN2C(=O)[C@@H]2CCCN2C(=O)[C@H]([C@@H](C)CC)NC(=O)[C@H](CO)NC(=O)[C@H](CCCCN)NC(=O)[C@H]([C@@H](C)O)NC(=O)[C@@H]2CSSC[C@H](NC1=O)C(=O)N[C@@H](Cc1ccc3ccccc3c1)C(=O)N1CCC[C@H]1C(=O)N[C@@H](CC(=O)O)C(=O)NCC(=O)N[C@@H](CCCN=C(N)N)C(=O)N2` [2-[(1R,4S,7S,13S,19S,22S,25S,28S,31R,34S,40S,43S,49S)-25-(4-aminobutyl)-4,19-bis[(2S)-butan-2-yl]-34-(3-carbamimidamidopropyl)-28-[(1R)-1-hydroxyethyl]-22-(hydroxymethyl)-49-(naphthalen-2-ylmethyl)-3,6,12,18,21,24,27,30,33,36,39,42,48,51-tetradecaoxo-53,54-dithia-2,5,11,17,20,23,26,29,32,35,38,41,47,50-tetradecaazapentacyclo[29.20.4.0^{7,11}.0^{13,17}.0^{43,47}]pentapentacontan-40-yl]acetic acid], the inhibition constant (Ki) in assay [1] turned out to be 16.3 µM; in assay [2] it was 450 nM.

As to `CC[C@H](C)[C@@H]1NC(=O)[C@@H]2CCCN2C(=O)[C@@H]2CCCN2C(=O)[C@H]([C@@H](C)CC)NC(=O)[C@H](CO)NC(=O)[C@H](CCCCN)NC(=O)[C@H]([C@@H](C)O)NC(=O)[C@@H]2CSCSC[C@H](NC1=O)C(=O)N[C@@H](Cc1ccccc1)C(=O)N1CCC[C@H]1C(=O)N[C@@H](CC(=O)O)C(=O)NCC(=O)N[C@@H](CCCN=C(N)N)C(=O)N2` [2-[(1R,4S,7S,13S,19S,22S,25S,28S,31R,34S,40S,43S,49S)-25-(4-aminobutyl)-49-benzyl-4,19-bis[(2S)-butan-2-yl]-34-(3-carbamimidamidopropyl)-28-[(1R)-1-hydroxyethyl]-22-(hydroxymethyl)-3,6,12,18,21,24,27,30,33,36,39,42,48,51-tetradecaoxo-53,55-dithia-2,5,11,17,20,23,26,29,32,35,38,41,47,50-tetradecaazapentacyclo[29.20.5.0^{7,11}.0^{13,17}.0^{43,47}]hexapentacontan-40-yl]acetic acid], the Ki turned out to be 10 µM in assay [1] and 160 nM in assay [2].
